Measurements as given in patent publication US11109593B2, “Isoxazolin-5-one derivative and herbicide containing same as active ingredient” (HOKKO CHEMICAL INDUSTRY CO., LTD., priority 2017, dated 2021).

Assays:
Type in all cases: in vivo
Echinochloa crus-galli [1] = test: Test Example 3: herbicidal effect test by treatment of dry field farming soil (one day after seeding); details: 120 g/10a active ingredient, evaluated 14 days after treatment
Method in brief: (§1)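 Herbicidal rate (%) = {1 − treated/untreated mean plant dry weight} × 100, scored 14 days after spraying, duplicate pots per concentration. Emulsified compound was water-diluted and applied to soil surface one day post-seeding at 120 g a.i. per 10 ares.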

southern crabgrass [2] = test: as above; details: 120 g/10a active ingredient, evaluated 14 days after treatment
Method in brief: as §1

Chenopodium album [3] = test: as above; details: 120 g/10a active ingredient, evaluated 14 days after treatment
Method in brief: as §1

Amaranthus viridis [4] = test: as above; details: 120 g/10a active ingredient, evaluated 14 days after treatment
Method in brief: as §1

Echinochloa crus-galli [5] = test: Test Example 4: herbicidal effect test by treatment of leave and stem in dry field farming (seven days after seeding); details: 120 g/10a active ingredient; emulsion sprayed seven days after seeding; evaluated 14 days after treatment
Method in brief: (§2)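 Twenty seeds per species were mixed into the top 1 cm of alluvial soil in 36 cm^2 pots; emulsions were sprayed seven days after seeding at 100 L per 10 ares (120 g active ingredient per 10 ares). Herbicidal rate (%) = {1 − treated/untreated mean dry weight} × 100, 14 days after treatment, duplicate.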

southern crabgrass [6] = test: as above; details: 120 g/10a active ingredient; emulsion sprayed seven days after seeding; evaluated 14 days after treatment
Method in brief: as §2

Chenopodium album [7] = test: as above; details: 120 g/10a active ingredient; emulsion sprayed seven days after seeding; evaluated 14 days after treatment
Method in brief: as §2

Amaranthus viridis [8] = test: as above; details: 120 g/10a active ingredient; emulsion sprayed seven days after seeding; evaluated 14 days after treatment
Method in brief: as §2

[9] = tested on: broad leaf weeds (Lindernia pyxidaria and Monochoria vaginalis); test: Test Example 1: herbicidal effect test by treatment of rice paddy soil (immediately after seeding); details: 120 g/10a active ingredient, dry weight vs untreated area, 14 days after treatment
Method in brief: (§3)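 Applied at 120 g a.i./10 ares as diluted emulsion dropped into flooded (~3 cm) paddy soil pots right after sowing seeds 0–1 cm deep; greenhouse, two replicates. At day 14, dry weight of treated versus untreated plants gives % herbicidal rate.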

Echinochloa crus-galli [10] = test: as above; details: 120 g/10a active ingredient, dry weight vs untreated area, 14 days after treatment
Method in brief: as §3

Scirpus juncoides [11] = test: as above; details: 120 g/10a active ingredient, dry weight vs untreated area, 14 days after treatment
Method in brief: as §3

[12] = tested on: broad leaf weeds (Lindernia pyxidaria and Monochoria vaginalis); test: Test Example 2: herbicidal effect test by treatment during growing period in paddy rice cultivation (seven days after seeding); details: 120 g/10a active ingredient, assessed 14 days after treatment, dry weight vs untreated area
Method in brief: (§4)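 Emulsion formulations, diluted in water, applied dropwise to flooded pots (about 3 cm water) 7 days post-seeding at 120 g a.i./10 ares. Weeds sown 30 seeds each, 0–1 cm deep in puddled paddy soil; greenhouse. Readout: % reduction in plant dry weight vs untreated, day 14, duplicates.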

Echinochloa crus-galli [13] = test: as above; details: 120 g/10a active ingredient, assessed 14 days after treatment, dry weight vs untreated area
Method in brief: as §4

Scirpus juncoides [14] = test: as above; details: 120 g/10a active ingredient, assessed 14 days after treatment, dry weight vs untreated area
Method in brief: as §4

| SMILES | herbicidal rate, Echinochloa crus-galli (Echinochloa crus-galli [1]) [%] | herbicidal rate, southern crabgrass (southern crabgrass [2]) [%] | herbicidal rate, Chenopodium album (Chenopodium album [3]) [%] | herbicidal rate, Amaranthus viridis (Amaranthus viridis [4]) [%] | herbicidal effect (herbicidal rate), Echinochloa crus-galli (Echinochloa crus-galli [5]) [%] | herbicidal effect (herbicidal rate), southern crabgrass (southern crabgrass [6]) [%] | herbicidal effect (herbicidal rate), Chenopodium album (Chenopodium album [7]) [%] | herbicidal effect (herbicidal rate), Amaranthus viridis (Amaranthus viridis [8]) [%] | Herbicidal rate (%) Lindernia pyxidaria [9] [%] | Herbicidal rate (%) Monochoria vaginalis [9] [%] | Herbicidal rate (%) Echinochloa crus-galli (Echinochloa crus-galli [10]) [%] | Herbicidal rate (%) Scirpus juncoides (Scirpus juncoides [11]) [%] | Herbicidal rate (%) Lindernia pyxidaria [12] [%] | Herbicidal rate (%) Monochoria vaginalis [12] [%] | Herbicidal rate (%) Echinochloa crus-galli (Echinochloa crus-galli [13]) [%] | Herbicidal rate (%) Scirpus juncoides (Scirpus juncoides [14]) [%] |
| --- | --- | --- | --- | --- | --- | --- | --- | --- | --- | --- | --- | --- | --- | --- | --- | --- |
| CSCCn1oc(=O)c(Cc2ccccc2N(C(=O)OCC(C)C)S(=O)(=O)C(F)(F)F)c1C [Compound 1-676] | 90 | 90 | 90 | 90 | 90 | 90 | 40 | 40 | 90 | 90 | 90 | 90 | 90 | 90 | 90 | 90 |
| Cc1c(Cc2ccccc2N(C(=O)OCC(C)C)S(=O)(=O)C(F)(F)F)c(=O)on1C(C)c1ccccc1 (stereo not shown) [Compound 1-678] | 90 | 90 | 90 | 90 | 90 | 90 | 40 | 40 | 90 | 90 | 90 | 90 | 90 | 90 | 90 | 90 |
| C=CCOC(=O)N(c1ccccc1Cc1c(C)n(C(C)CC)oc1=O)S(=O)(=O)C(F)(F)F (stereo not shown) [Compound 1-706] | 90 | 90 | 90 | 90 | 90 | 90 | 40 | 40 | 90 | 90 | 90 | 90 | 90 | 90 | 90 | 90 |
| C=CCOC(=O)N(c1ccccc1Cc1c(C)n(CC(C)C)oc1=O)S(=O)(=O)C(F)(F)F [Compound 1-707] | 90 | 90 | 90 | 90 | 90 | 90 | 40 | 40 | 90 | 90 | 90 | 90 | 90 | 90 | 90 | 90 |
| C=CCOC(=O)N(c1ccccc1Cc1c(C)n(C(C)COC)oc1=O)S(=O)(=O)C(F)(F)F (stereo not shown) [Compound 1-708] | 90 | 90 | 90 | 90 | 90 | 90 | 40 | 40 | 90 | 90 | 90 | 90 | 90 | 90 | 90 | 90 |
| C=CCOC(=O)N(c1ccccc1Cc1c(C)n(CCSC)oc1=O)S(=O)(=O)C(F)(F)F [Compound 1-709] | 90 | 90 | 90 | 90 | 90 | 90 | 40 | 40 | 90 | 90 | 90 | 90 | 90 | 90 | 90 | 90 |
| C=CCOC(=O)N(c1ccccc1Cc1c(C)n(C(C)c2ccccc2)oc1=O)S(=O)(=O)C(F)(F)F (stereo not shown) [Compound 1-710] | 90 | 90 | 90 | 90 | 90 | 90 | 40 | 40 | 90 | 90 | 90 | 90 | 90 | 90 | 90 | 90 |
